Laboratory results from BindingDB's records for doi:10.1016/j.bioorg.2016.08.011 (Recep Tayyip Erdogan University, 2016).

target: Alpha-glucosidase MAL12 (Saccharomyces cerevisiae (strain ATCC 204508 / S288c), UniProt P53341); assay: α-Glucosidase inhibition assay; settings: pH 6.8
Experimental: α-Glucosidase inhibition assay was performed spectrophotometrically. α-Glucosidase from Saccharomyces cerevisiae (Sigma-Aldrich) was dissolved in phosphate buffer (pH 6.8, 50 mM). Test compounds were dissolved in DMSO. In 96-well microtiter plates, 20 µL of test sample, 20 µL of enzyme (20 mU/mL) and 135 µL of buffer were added and incubated for 15 min at 37 °C. After incubation, 25 µL of p-nitrophenyl-α-D-glucopyranoside (2 mM, Sigma Aldrich) was added and change in absorbance was monitored for 20 min at 400 nm. Test compound was replaced by DMSO (10% final) as control. […] The assays were done in triplicate.

Alpha-glucosidase MAL12, sequence (P53341 whole entry): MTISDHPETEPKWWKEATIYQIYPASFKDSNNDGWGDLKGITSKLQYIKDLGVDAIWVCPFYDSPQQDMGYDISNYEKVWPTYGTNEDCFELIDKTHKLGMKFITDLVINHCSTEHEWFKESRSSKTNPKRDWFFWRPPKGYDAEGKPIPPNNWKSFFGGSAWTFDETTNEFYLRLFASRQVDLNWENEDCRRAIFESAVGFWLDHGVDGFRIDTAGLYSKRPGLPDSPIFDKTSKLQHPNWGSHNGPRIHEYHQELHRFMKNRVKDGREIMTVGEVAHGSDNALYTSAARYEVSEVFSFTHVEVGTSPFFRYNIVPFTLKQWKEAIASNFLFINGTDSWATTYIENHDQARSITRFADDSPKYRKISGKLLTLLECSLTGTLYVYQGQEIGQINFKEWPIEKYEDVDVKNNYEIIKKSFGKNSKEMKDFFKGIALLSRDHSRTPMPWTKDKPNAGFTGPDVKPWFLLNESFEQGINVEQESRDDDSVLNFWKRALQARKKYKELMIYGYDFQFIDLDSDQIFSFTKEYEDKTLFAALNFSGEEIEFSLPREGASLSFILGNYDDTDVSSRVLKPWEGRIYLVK

Going from `NNC(=O)Cn1c(Cc2ccc(Cl)cc2Cl)nc2ccc([N+](=O)[O-])cc21` [2-[2-(2,4-Dichlorobenzyl)-6-nitro-1H-benzimidazol-1-yl]acetohydrazide (4b)] to `O=C(Cn1c(Cc2ccc(Cl)cc2Cl)nc2ccc([N+](=O)[O-])cc21)NNC(=S)Nc1ccccc1` [2-{[2-(2,4-Dichlorobenzyl)-6-nitro-1H-benzimidazol-1-yl]acetyl}-N-phenyl hydrazinecarbothioamide (6b)], the IC50 rises from 10.5 µM to 93 µM (8.9-fold).

`O=C(Cn1c(Cc2ccc(Cl)cc2Cl)nc2ccccc21)NNC(=S)Nc1ccccc1` [2-{[2-(2,4-Dichlorobenzyl)-1H-benzimidazol-1-yl]acetyl}-N-phenylhydrazinecarbothioamide (6a)] and `Clc1ccc(Cc2nc3ccccc3n2Cc2nnc(Nc3ccccc3)s2)c(Cl)c1` [5-{[2-(2,4-Dichlorobenzyl)-1H-benzimidazol-1-yl]methyl}-N-phenyl-1,3,4-thiadiazol-2-amine (8a)] are within 1.5-fold of each other in IC50: 141 µM for the first, 158 µM for the second.

Going from `Sc1nnc(Cn2c(Cc3ccc(Cl)cc3Cl)nc3ccccc32)o1` [5-{[2-(2,4-Dichlorobenzyl)-1H-benzimidazol-1-yl]methyl}-1,3,4-oxadiazole-2-thiol (5a)] to `O=[N+]([O-])c1ccc2nc(Cc3ccc(Cl)cc3Cl)n(Cc3nnc(S)o3)c2c1` [5-{[2-(2,4-Dichlorobenzyl)-6-nitro-1H-benzimidazol-1-yl]methyl}-1,3,4-oxadiazole-2-thiol (5b)], the IC50 falls from 254 µM to 26.9 µM (9.4-fold). The second is the more potent here.

Compound `O=[N+]([O-])c1cccc2nc(Cc3ccc(Cl)cc3Cl)n(Cc3nnc(S)n3-c3ccccc3)c12` [5-{[2-(2,4-Dichlorobenzyl)-7-nitro-1H-benzimidazol-1-yl]methyl}-4-phenyl-4H-1,2,4-triazole-3-thiol (7b)] has an IC50 of 40.5 µM.
